Reference: patent US12559732B2, “Compositions and methods for producing human milk oligosaccharides” (NORTH CAROLINA STATE UNIVERSITY, priority 2020, dated 2026)

How the values were obtained:
[1] = target: Hamamotoa (Sporobolomyces) singularis β-hexosyl-transferase (BHT), truncated variant rBHT(32-594)-HIS (residues 1-31 removed); MFα-rBht(32-594)-HIS SEQ ID NO: 48 (Hamamotoa singularis, UniProt Q564N5); experiment: Kinetics of ONP-Glu cleavage by purified soluble rBHT(32-594)-HIS; type: biochemical; settings: 0.08-10.4 mM ONP-Glu, 20, 30, 42 and 55° C.
Source text: (§1) K. pastoris Transformation and Expression. […] Expression and purification have been described previously.
(§2) Kinetic parameters of secreted soluble rBHT variants.

[2] = target: T1, Hamamotoa (Sporobolomyces) singularis β-hexosyl-transferase (BHT), truncated variant rBHT(57-594)-HIS (residues 1-56 removed); MFα-rBht(57-594)-HIS SEQ ID NO: 52 (Hamamotoa singularis, UniProt Q564N5); settings: 0.08-10.4 mM ONP-Glu, 20, 30, 42 and 55° C.
T1 sequence (Q564N5 57-594): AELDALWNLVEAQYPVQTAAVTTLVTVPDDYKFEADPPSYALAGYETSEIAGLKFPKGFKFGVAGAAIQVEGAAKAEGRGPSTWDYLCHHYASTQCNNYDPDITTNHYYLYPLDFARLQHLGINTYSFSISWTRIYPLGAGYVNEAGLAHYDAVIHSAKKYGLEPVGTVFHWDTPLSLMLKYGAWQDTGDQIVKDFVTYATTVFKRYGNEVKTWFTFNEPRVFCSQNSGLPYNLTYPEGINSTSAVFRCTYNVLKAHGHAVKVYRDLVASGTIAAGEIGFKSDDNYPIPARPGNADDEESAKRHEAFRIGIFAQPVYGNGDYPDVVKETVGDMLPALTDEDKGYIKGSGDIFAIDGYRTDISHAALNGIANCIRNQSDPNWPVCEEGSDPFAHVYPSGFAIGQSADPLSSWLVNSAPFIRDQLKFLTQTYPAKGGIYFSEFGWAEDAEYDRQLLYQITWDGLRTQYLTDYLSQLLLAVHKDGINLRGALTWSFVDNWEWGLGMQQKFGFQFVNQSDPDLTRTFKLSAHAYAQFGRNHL

[3] = target: T2, Hamamotoa (Sporobolomyces) singularis β-hexosyl-transferase (BHT), truncated variant rBHT(23-594)-HIS (residues 1-22 removed); MFα-rBht(23-594)-HIS SEQ ID NO: 38 (Hamamotoa singularis, UniProt Q564N5); experiment: Kinetics of ONP-Glu cleavage by purified soluble rBHT(23-594)-HIS; type: biochemical; settings: 0.08-10.4 mM ONP-Glu, 20, 30, 42 and 55° C.
T2 construct: codon-optimized gene
Source text: as §1, §2

[4] = target: Hamamotoa (Sporobolomyces) singularis β-hexosyl-transferase (BHT), truncated variant rBHT(54-594)-HIS (residues 1-53 removed); MFα-rBht(54-594)-HIS SEQ ID NO: 50 (Hamamotoa singularis, UniProt Q564N5); experiment: Kinetics of ONP-Glu cleavage by purified soluble rBHT(54-594)-HIS; type: biochemical; settings: 0.08-10.4 mM ONP-Glu, 20, 30, 42 and 55° C.
Source text: as §1, §2

[5] = test system: Hamamotoa (Sporobolomyces) singularis β-hexosyl-transferase (BHT, EC 3.2.1.21), native; settings: lactose concentrations above 20%; cited from earlier work

Row | Compound | Km (affinity for the substrate ONP-Glu) [1] | kcat (turnover activity, ONP-Glu) [1] | Km (affinity for the substrate ONP-Glu) [2] | kcat (turnover activity, ONP-Glu) [2] | Km (affinity for the substrate ONP-Glu) [3] | kcat (turnover activity, ONP-Glu) [3] | Km (affinity for the substrate ONP-Glu) [4] | kcat (turnover activity, ONP-Glu) [4] | inhibition by lactose [5]
1 | O=[N+]([O-])c1ccccc1O[C@@H]1O[C@H](CO)[C@@H](O)[C@H](O)[C@H]1O [ONP-Glu] | retain similar affinity for the substrate ONP-Glu (Km) | retain similar affinity for the substrate ONP-Glu (Km) and turnover activity (kcat) | retain similar affinity for the substrate ONP-Glu (Km) | retain similar affinity for the substrate ONP-Glu (Km) and turnover activity (kcat) | retain similar affinity for the substrate ONP-Glu (Km) | retain similar affinity for the substrate ONP-Glu (Km) and turnover activity (kcat) | retain similar affinity for the substrate ONP-Glu (Km) | retain similar affinity for the substrate ONP-Glu (Km) and turnover activity (kcat) | –
2 | OC[C@H]1O[C@@H](O[C@H]2[C@H](O)[C@@H](O)C(O)O[C@@H]2CO)[C@H](O)[C@@H](O)[C@H]1O (stereo partly drawn) [lactose] | – | – | – | – | – | – | – | – | does not appear to be inhibited by lactose concentrations above 20%
